Each block holds one compound with its values, some of them ahead of it.
What was measured:
ERα [1] = molecular target: T1, ERα (Homo sapiens, UniProt P03372); test: fluorescent polarization competitive binding assay, ERα; set-up: purchased PanVera Corp; host or cells: baculovirus expression; conditions: for IC50: class symbol NC
T1 sequence (P03372 1-595): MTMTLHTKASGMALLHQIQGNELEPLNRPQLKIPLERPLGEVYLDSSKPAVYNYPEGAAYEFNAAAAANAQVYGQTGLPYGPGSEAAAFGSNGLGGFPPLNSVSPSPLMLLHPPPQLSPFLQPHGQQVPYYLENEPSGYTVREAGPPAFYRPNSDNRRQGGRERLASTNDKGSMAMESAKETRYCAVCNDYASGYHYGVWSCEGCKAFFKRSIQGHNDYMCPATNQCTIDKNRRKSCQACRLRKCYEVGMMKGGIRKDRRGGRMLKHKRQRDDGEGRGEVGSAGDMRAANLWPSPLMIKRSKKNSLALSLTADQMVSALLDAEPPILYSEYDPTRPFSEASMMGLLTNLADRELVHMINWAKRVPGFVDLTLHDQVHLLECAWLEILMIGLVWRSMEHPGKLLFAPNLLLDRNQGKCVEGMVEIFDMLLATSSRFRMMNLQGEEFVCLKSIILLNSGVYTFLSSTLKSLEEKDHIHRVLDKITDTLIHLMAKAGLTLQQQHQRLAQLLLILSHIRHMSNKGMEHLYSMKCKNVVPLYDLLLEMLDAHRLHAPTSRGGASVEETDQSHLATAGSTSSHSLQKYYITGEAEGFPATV

ERβ [2] = molecular target: T2, ERβ (Homo sapiens, UniProt Q92731); test: fluorescent polarization competitive binding assay, ERβ; set-up: purchased PanVera Corp; host or cells: baculovirus expression; conditions: for IC50: class symbol NC
Target sequence in this assay (Q92731 whole entry): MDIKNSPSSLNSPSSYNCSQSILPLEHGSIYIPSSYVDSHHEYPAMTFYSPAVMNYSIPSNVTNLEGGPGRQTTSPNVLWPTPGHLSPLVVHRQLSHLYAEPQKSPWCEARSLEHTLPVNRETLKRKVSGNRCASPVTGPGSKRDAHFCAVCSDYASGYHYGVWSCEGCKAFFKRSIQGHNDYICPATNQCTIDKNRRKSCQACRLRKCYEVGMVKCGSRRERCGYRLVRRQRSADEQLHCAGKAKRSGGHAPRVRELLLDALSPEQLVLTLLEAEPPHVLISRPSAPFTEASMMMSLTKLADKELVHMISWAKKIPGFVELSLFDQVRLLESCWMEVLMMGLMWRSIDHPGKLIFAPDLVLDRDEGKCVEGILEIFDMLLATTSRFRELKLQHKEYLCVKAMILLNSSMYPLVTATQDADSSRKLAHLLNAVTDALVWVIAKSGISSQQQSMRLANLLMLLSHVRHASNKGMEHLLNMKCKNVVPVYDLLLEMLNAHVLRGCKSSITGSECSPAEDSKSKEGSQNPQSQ

ERα [3] = molecular target: T1, ERα; conditions: cited from earlier work
ERβ [4] = molecular target: T2, ERβ; conditions: cited from earlier work
Target sequence in this assay (Q92731 whole entry, species assumed): as the sequence (Q92731 whole entry) above

IC50 (ERα [1]): > 1000 µM
Structure (SMILES): Oc1ccc(C2COc3cc(O)ccc3C2)cc1 (stereo not shown) [Compd 2]

IC50 (ERα [1]): > 1000 µM
binding to ERβ / the receptor (in words) (ERβ [2]): either very weak or no binding
IC50 (ERβ [2]): > 1000 µM
Structure (SMILES): Cc1oc2cc(O)ccc2c(=O)c1-c1cc2ccccc2o1 [Compd 4]

IC50 (ERα [1]): > 1000 µM
binding to ERβ / the receptor (in words) (ERβ [2]): either very weak or no binding
IC50 (ERβ [2]): > 1000 µM
Structure (SMILES): O=c1oc2cc(OCc3cccc(O)c3)ccc2c2c1CCC2 [Compd 10]

binding to ERβ / the receptor (in words) (ERβ [2]): either very weak or no binding
Structure (SMILES): O=c1nc2n(c3cc4ccccc4cc13)Cc1ccccc1-2 [Compd 12]

Structure (SMILES): Oc1ccc([C@@H]2COc3cc(O)ccc3C2)cc1 [R-equol]
relative binding affinity for ERα compared to 17β-estradiol (ERα [3]): 210.6 fold less
binding to ERβ, R-equol enantiomer, fold less (ERβ [4]): approximately 100 fold less

Structure (SMILES): Oc1ccc([C@H]2COc3cc(O)ccc3C2)cc1 [S-equol]
binding affinity for ERα compared to ERβ (ERα [3]): 10 fold less
relative binding affinity for ERα compared to 17β-estradiol (ERα [3]): 49.2 fold less
Kd (ERβ [4]): 0.0007 µM
binding to ERβ relative to 17β-estradiol (ERβ [4]): approximately 20%

Structure (SMILES): CC(=O)[C@H]1CC[C@H]2[C@@H]3CCC4=CC(=O)CC[C@]4(C)[C@H]3CC[C@]12C [progesterone, reference compound]
binding to ERα (in words) (ERα [1]): does not bind
binding to ERβ / the receptor (in words) (ERβ [2]): does not bind
